Results as given in ChEMBL document CHEMBL1142733, “Binding thermodynamics as a tool to investigate the mechanisms of drug-receptor interactions: thermodynamics of cytoplasmic steroid/nuclear receptors in comparison with membrane receptors” (J Med Chem, 2005).
One block for each compound: values may come before it.

What was measured:
[1] = target: T1, Adenosine receptor A1 (Homo sapiens, UniProt P30542)
T1 sequence (P30542 whole entry): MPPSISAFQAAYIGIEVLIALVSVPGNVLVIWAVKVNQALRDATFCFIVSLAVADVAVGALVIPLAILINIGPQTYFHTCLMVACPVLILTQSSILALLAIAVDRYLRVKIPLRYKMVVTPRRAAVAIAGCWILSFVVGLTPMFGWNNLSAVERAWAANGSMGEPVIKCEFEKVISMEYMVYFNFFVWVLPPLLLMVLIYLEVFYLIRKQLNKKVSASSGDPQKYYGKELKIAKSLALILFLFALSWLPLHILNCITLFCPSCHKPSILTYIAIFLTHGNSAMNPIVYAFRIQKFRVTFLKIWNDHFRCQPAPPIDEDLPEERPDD
Description: (§1) Dissociation constant against Adenosine A1 receptor

[2] = target: T2, Adenosine receptor A1 (Homo sapiens) (UniProt P30542)
T2 sequence (whole entry): T1 sequence (P30542 whole entry)
Description: as §1

[3] = target: T3, Progesterone receptor (Homo sapiens, UniProt P06401); experiment: Dissociation constant for [3H]ORG2058 at human progesterone receptor at 273 K
T3 sequence (P06401 whole entry): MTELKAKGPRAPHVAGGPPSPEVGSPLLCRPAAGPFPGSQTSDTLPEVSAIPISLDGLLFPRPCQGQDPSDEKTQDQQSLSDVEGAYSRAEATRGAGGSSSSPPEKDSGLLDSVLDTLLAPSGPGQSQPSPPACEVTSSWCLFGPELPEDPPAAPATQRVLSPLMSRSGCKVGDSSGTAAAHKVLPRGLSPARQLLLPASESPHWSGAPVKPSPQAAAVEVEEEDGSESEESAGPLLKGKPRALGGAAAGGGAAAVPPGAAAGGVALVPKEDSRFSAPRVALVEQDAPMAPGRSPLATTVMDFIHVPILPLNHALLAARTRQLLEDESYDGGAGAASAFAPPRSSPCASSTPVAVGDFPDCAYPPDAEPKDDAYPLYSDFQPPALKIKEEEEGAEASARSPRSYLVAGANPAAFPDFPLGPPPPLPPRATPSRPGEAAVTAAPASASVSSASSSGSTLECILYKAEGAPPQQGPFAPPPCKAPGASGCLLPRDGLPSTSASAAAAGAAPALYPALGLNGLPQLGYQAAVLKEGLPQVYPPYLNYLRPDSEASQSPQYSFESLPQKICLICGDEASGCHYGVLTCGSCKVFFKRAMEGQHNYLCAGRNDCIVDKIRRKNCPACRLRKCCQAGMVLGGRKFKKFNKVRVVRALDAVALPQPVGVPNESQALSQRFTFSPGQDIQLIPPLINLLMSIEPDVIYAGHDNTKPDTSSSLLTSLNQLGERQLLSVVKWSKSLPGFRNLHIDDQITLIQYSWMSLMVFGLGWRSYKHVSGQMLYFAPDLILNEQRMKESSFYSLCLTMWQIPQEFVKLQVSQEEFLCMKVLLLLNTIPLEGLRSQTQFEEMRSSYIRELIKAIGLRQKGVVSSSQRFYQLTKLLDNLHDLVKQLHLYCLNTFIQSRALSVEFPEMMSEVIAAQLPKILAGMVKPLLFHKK

[4] = target: T3, Progesterone receptor; experiment: Dissociation constant for [3H]-ORG2058 at human progesterone receptor at 310K
[5] = target: T3, Progesterone receptor; experiment: Dissociation constant for [3H]ORG2058 at human progesterone receptor at 298 K
[6] = target: T3, Progesterone receptor; experiment: Dissociation constant for [3H]ORG2058 at human progesterone receptor at 288 K
[7] = target: T3, Progesterone receptor; experiment: Dissociation constant for [3H]-ORG2058 at human progesterone receptor at 283 K
[8] = target: T3, Progesterone receptor; experiment: Dissociation constant for [3H]-ORG2058 at human progesterone receptor at 278 K
[9] = target: T3, Progesterone receptor; experiment: Dissociation constant for [3H]ORG2058 at human progesterone receptor at 308 K
[10] = target: T3, Progesterone receptor; experiment: Dissociation constant for [3H]ORG2058 at human progesterone receptor at 293K
[11] = target: T3, Progesterone receptor; experiment: Dissociation constant for [3H]ORG2058 at human progesterone receptor at 303 K

Kd [1]: 5.9 µM
SMILES: CC(C)Cn1c(=O)n(C)c(=O)c2[nH]cnc21 [ISOBUTYLMETHYLXANTHINE]

KD hydro [2]: 19000 µM
SMILES: CC(C)Cn1c(=O)n(C)c(=O)c2nc[nH]c21

SMILES: CC[C@@H]1C[C@H]2[C@@H]3CCC4=CC(=O)CC[C@@H]4[C@H]3CC[C@]2(C)[C@H]1C(=O)CO
Kd [3]: 0.00328 µM
Kd [4]: 0.00542 µM
Kd [5]: 0.00316 µM
Kd [6]: 0.00232 µM
Kd [7]: 0.00249 µM
Kd [8]: 0.0027 µM
Kd [9]: 0.00456 µM
Kd [10]: 0.00264 µM
Kd [11]: 0.00413 µM
